Some test systems named below: A498; A549; DU-145; K562; KM12; M14; MCF7; MDA-N; Malme-3M; NCI-H460; PC-3; SF-268; SK-MEL-2; SK-OV-3; TK-10; U-251; UACC-257; UO-31; SF-539; SNB-75.
Assay in all cases: growth of human tumour cells (NCI), 48 h

The values below come from ChEMBL document CHEMBL1201862, “PubChem BioAssay data set” (2004).

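Tested at 5 concentrations; 48 h exposure; 96-well plates; endpoints linearly interpolated, else capped at highest concentration. Abbreviation: GI50, concentration required for 50% inhibition of growth.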 The source made the active and inactive calls. Cut-off read from the data, not from the text of the source: active = GI50 up to about 1.1 µM and inactive = higher.

As for `COC(=O)c1c(C#N)c(N)nc2c1CCC2`, the GI50 with A498, in the experiment on A549, in the experiment with DU-145, with K562, with KM12 and in the experiment on M14 was > 100 µM (inactive) in each case. The GI50 with MCF7, in the experiment on MDA-N, with Malme-3M, in the experiment with NCI-H460, in the experiment on PC-3 and in the experiment on SF-268 was > 100 µM (inactive) each time. Moreover, the GI50 with SK-MEL-2 is > 100 µM (inactive); with SK-OV-3, > 100 µM (inactive); with TK-10 it was > 100 µM (inactive); with U-251 it was > 100 µM (inactive); in the experiment on UACC-257, > 100 µM (inactive); in the experiment on UO-31, 69.7 µM (inactive).
In the case of `CC1(C)C(/C=N\O)=[N+]([O-])C(C)(C)N1O`, the GI50 with A549, in the experiment with DU-145, with K562, in the experiment on KM12, with M14 and in the experiment with MCF7 was > 100 µM (inactive) each time. In addition, the GI50 in the experiment with MDA-N was 52.7 µM (inactive); with Malme-3M, > 100 µM (inactive); with NCI-H460, > 100 µM (inactive); in the experiment on PC-3, > 100 µM (inactive); in the experiment on SF-268, > 100 µM (inactive); in the experiment with SF-539, > 100 µM (inactive). Also, the GI50 in the experiment on SK-MEL-2, in the experiment on SK-OV-3, in the experiment on SNB-75, in the experiment on TK-10, in the experiment with U-251 and with UACC-257 was > 100 µM (inactive) throughout. Moreover, in the experiment with UO-31, the GI50 was > 100 µM (inactive).
In the case of `C/C(=N\Nc1nc2ccccc2s1)c1cnccn1`, the GI50 is 3.3 µM (inactive) in the experiment on A549; 4.34 µM (inactive) in the experiment with DU-145; 1.67 µM (inactive) in the experiment with K562; 2.07 µM (inactive) with KM12; 0.685 µM (active) with M14; 1.52 µM (inactive) with MCF7. Also, the GI50 with MDA-N is 11.4 µM (inactive); in the experiment on Malme-3M, 0.505 µM (active); in the experiment with NCI-H460, 1.77 µM (inactive); in the experiment on PC-3, 2.12 µM (inactive); in the experiment on SF-268 it was 1.16 µM (inactive); with SF-539, 5.24 µM (inactive). For the same compound, the GI50 in the experiment with SK-MEL-2 is 7.5 µM (inactive); with SK-OV-3, 2.08 µM (inactive); in the experiment on SNB-75, 2.8 µM (inactive); with U-251 it was 3.67 µM (inactive); in the experiment on UACC-257, 4.13 µM (inactive); in the experiment on UO-31, 1.06 µM (active).
On to `CC(C)[Si](OC1=CCC[C@H]2NC(=O)[C@@H](Cc3ccc([N+](=O)[O-])cc3)[C@@]12C)(C(C)C)C(C)C`, for which the GI50 was 1.85 µM (inactive) with A549; 9.46 µM (inactive) with DU-145; 3.06 µM (inactive) in the experiment on K562; 3.73 µM (inactive) in the experiment with KM12; 12.5 µM (inactive) with M14; 3.73 µM (inactive) in the experiment on MCF7. In addition, the GI50 was 4.98 µM (inactive) with MDA-N; 16.6 µM (inactive) with Malme-3M; 3.35 µM (inactive) in the experiment on NCI-H460; 3.4 µM (inactive) with PC-3; 7.52 µM (inactive) with SF-268; 2.42 µM (inactive) with SF-539. In addition, the GI50 in the experiment with SK-MEL-2 is 12.8 µM (inactive); in the experiment with SK-OV-3, 10.1 µM (inactive); with SNB-75, 10.4 µM (inactive); in the experiment on TK-10 it was 11 µM (inactive); in the experiment with UACC-257, 5.47 µM (inactive); in the experiment on UO-31, 13.4 µM (inactive).
Turning to `CC(=O)O[C@H]1CC[C@@H](OC(C)=O)[C@H]2[C@H](O)[C@H](O)[C@@H]1n1c(=O)n(-c3ccccc3)c(=O)n12`, the GI50 in the experiment on A498, in the experiment with A549, in the experiment on DU-145, in the experiment with K562, in the experiment on KM12 and in the experiment with M14 was > 100 µM (inactive) each time. In addition, the GI50 with MCF7, in the experiment on MDA-N, in the experiment on Malme-3M, in the experiment on PC-3, with SF-268 and in the experiment with SF-539 was > 100 µM (inactive) each time. Further, the GI50 in the experiment on SK-MEL-2, in the experiment with TK-10, in the experiment with U-251, in the experiment with UACC-257 and in the experiment with UO-31 was > 100 µM (inactive) each time.
On to `O=C1C[S+]([O-])C23c4cc5ccccc5n4CCC2CCCN13` (stereo not given), for which the GI50 with A498, with A549, with DU-145, with K562, in the experiment with KM12 and in the experiment on M14 was > 100 µM (inactive) in each case. Also, the GI50 in the experiment with MCF7, with MDA-N, with Malme-3M, in the experiment on PC-3, in the experiment with SF-268 and with SF-539 was > 100 µM (inactive) throughout. Besides, the GI50 in the experiment on SK-MEL-2, in the experiment on SK-OV-3, in the experiment on TK-10, in the experiment on U-251 and in the experiment with UACC-257 was > 100 µM (inactive) each time.
On to `CC(C)CCC[C@@H](C)C1CCC2[C@@H]3CCC4C[C@@H](NS(C)(=O)=O)CC[C@]4(C)C3CC[C@@]21C` (stereo not given in full), for which the GI50 in the experiment with A549, with DU-145, in the experiment with K562, in the experiment on KM12, with M14 and in the experiment on MCF7 was > 100 µM (inactive) throughout. Moreover, the GI50 in the experiment on MDA-N, in the experiment with Malme-3M, in the experiment with NCI-H460, with PC-3, in the experiment on SF-268 and in the experiment with SF-539 was > 100 µM (inactive) each time. Besides, the GI50 with SK-MEL-2, in the experiment with SK-OV-3, in the experiment with SNB-75, in the experiment on TK-10, in the experiment with U-251 and with UACC-257 was > 100 µM (inactive) in each case. Moreover, in the experiment on UO-31, the GI50 was > 100 µM (inactive).
For the compound `Oc1ccccc1-n1nc2ccc3nonc3c2n1`, the GI50 is > 100 µM (inactive) in the experiment with A549; > 100 µM (inactive) with DU-145; > 100 µM (inactive) in the experiment with K562; 30.3 µM (inactive) in the experiment on KM12; > 100 µM (inactive) in the experiment on M14; > 100 µM (inactive) with MCF7. Also, the GI50 in the experiment with MDA-N, with Malme-3M, with NCI-H460, with PC-3, in the experiment with SF-268 and with SF-539 was > 100 µM (inactive) in each case. The GI50 with SK-MEL-2, with SK-OV-3, in the experiment on SNB-75, with TK-10, with U-251 and in the experiment with UACC-257 was > 100 µM (inactive) each time. The GI50 in the experiment on UO-31 is 77.4 µM (inactive).
